Active and inactive are the calls of the source.
Key:
Assay type in all cases: functional
CCRF-CEM = assay: Antiproliferative activity against human CCRF-CEM cells at 10 uM assessed as cell growth inhibition relative to control
HL-60(TB) = assay: Antiproliferative activity against human HL-60(TB) cells at 10 uM assessed as cell growth inhibition relative to control
K562 = assay: Antiproliferative activity against human K562 cells at 10 uM assessed as cell growth inhibition relative to control
MOLT-4 = assay: Antiproliferative activity against human MOLT4 cells at 10 uM assessed as cell growth inhibition relative to control
RPMI8266 = assay: Antiproliferative activity against human […] cells at 10 uM assessed as cell growth inhibition relative to control
A549 = assay: Antiproliferative activity against human A549 cells at 10 uM assessed as cell growth inhibition relative to control
EKVX = assay: Antiproliferative activity against human EKVX cells at 10 uM assessed as cell growth inhibition relative to control
PC-3 = assay: Antiproliferative activity against human PC3 cells at 10 uM assessed as cell growth inhibition relative to control
HOP-62 = assay: Antiproliferative activity against human HOP62 cells at 10 uM assessed as cell growth inhibition relative to control
HOP-92 = assay: Antiproliferative activity against human HOP92 cells at 10 uM assessed as cell growth inhibition relative to control
NCI-H226 = assay: Antiproliferative activity against human NCI-H226 cells at 10 uM assessed as cell growth inhibition relative to control
NCI-H23 = assay: Antiproliferative activity against human NCI-H23 cells at 10 uM assessed as cell growth inhibition relative to control
NCI-H322M = assay: Antiproliferative activity against human NCI-H322M cells at 10 uM assessed as cell growth inhibition relative to control
NCI-H460 = assay: Antiproliferative activity against human NCI-H460 cells at 10 uM assessed as cell growth inhibition relative to control
NCI-H522 = assay: Antiproliferative activity against human NCI-H522 cells at 10 uM assessed as cell growth inhibition relative to control
COLO 205 = assay: Antiproliferative activity against human COLO205 cells at 10 uM assessed as cell growth inhibition relative to control
HCC 2998 = assay: Antiproliferative activity against human HCC2998 cells at 10 uM assessed as cell growth inhibition relative to control
HCT-116 = assay: Antiproliferative activity against human HCT116 cells at 10 uM assessed as cell growth inhibition relative to control
HCT-15 = assay: Antiproliferative activity against human HCT15 cells at 10 uM assessed as cell growth inhibition relative to control
HT-29 = assay: Antiproliferative activity against human HT-29 cells at 10 uM assessed as cell growth inhibition relative to control
KM12 = assay: Antiproliferative activity against human KM12 cells at 10 uM assessed as cell growth inhibition relative to control
SW-620 = assay: Antiproliferative activity against human SW620 cells at 10 uM assessed as cell growth inhibition relative to control
LOX IMVI = assay: Antiproliferative activity against human LOXIMVI cells at 10 uM assessed as cell growth inhibition relative to control
Malme-3M = assay: Antiproliferative activity against human MALME-3M cells at 10 uM assessed as cell growth inhibition relative to control
M14 = assay: Antiproliferative activity against human M14 cells at 10 uM assessed as cell growth inhibition relative to control
SK-MEL-2 = assay: Antiproliferative activity against human SK-MEL-2 cells at 10 uM assessed as cell growth inhibition relative to control
SK-MEL-28 = assay: Antiproliferative activity against human SK-MEL-28 cells at 10 uM assessed as cell growth inhibition relative to control
SK-MEL-5 = assay: Antiproliferative activity against human SK-MEL-5 cells at 10 uM assessed as cell growth inhibition relative to control
UACC-257 = assay: Antiproliferative activity against human UACC257 cells at 10 uM assessed as cell growth inhibition relative to control
UACC-62 = assay: Antiproliferative activity against human UACC62 cells at 10 uM assessed as cell growth inhibition relative to control
SF-268 = assay: Antiproliferative activity against human SF268 cells at 10 uM assessed as cell growth inhibition relative to control
SF-295 = assay: Antiproliferative activity against human SF295 cells at 10 uM assessed as cell growth inhibition relative to control
SF-539 = assay: Antiproliferative activity against human SF539 cells at 10 uM assessed as cell growth inhibition relative to control
SNB-19 = assay: Antiproliferative activity against human SNB19 cells at 10 uM assessed as cell growth inhibition relative to control
SNB-75 = assay: Antiproliferative activity against human SNB75 cells at 10 uM assessed as cell growth inhibition relative to control
U-251 = assay: Antiproliferative activity against human U251 cells at 10 uM assessed as cell growth inhibition relative to control
IGROV-1 = assay: Antiproliferative activity against human IGROV1 cells at 10 uM assessed as cell growth inhibition relative to control
OVCAR-3 = assay: Antiproliferative activity against human OVCAR-3 cells at 10 uM assessed as cell growth inhibition relative to control
OVCAR-4 = assay: Antiproliferative activity against human OVCAR4 cells at 10 uM assessed as cell growth inhibition relative to control
OVCAR-5 = assay: Antiproliferative activity against human OVCAR5 cells at 10 uM assessed as cell growth inhibition relative to control
OVCAR-8 = assay: Antiproliferative activity against human OVCAR8 cells at 10 uM assessed as cell growth inhibition relative to control
SK-OV-3 = assay: Antiproliferative activity against human SKOV3 cells at 10 uM assessed as cell growth inhibition relative to control
786-0 = assay: Antiproliferative activity against human 786-0 cells at 10 uM assessed as cell growth inhibition relative to control
A498 = assay: Antiproliferative activity against human A498 cells at 10 uM assessed as cell growth inhibition relative to control
ACHN = assay: Antiproliferative activity against human ACHN cells at 10 uM assessed as cell growth inhibition relative to control
CAKI-1 = assay: Antiproliferative activity against human Caki1 cells at 10 uM assessed as cell growth inhibition relative to control
RXF 393 = assay: Antiproliferative activity against human RXF393 cells at 10 uM assessed as cell growth inhibition relative to control
SN12C = assay: Antiproliferative activity against human SN12C cells at 10 uM assessed as cell growth inhibition relative to control
TK-10 = assay: Antiproliferative activity against human TK10 cells at 10 uM assessed as cell growth inhibition relative to control
UO-31 = assay: Antiproliferative activity against human UO31 cells at 10 uM assessed as cell growth inhibition relative to control
BT-549 = assay: Antiproliferative activity against human BT549 cells at 10 uM assessed as cell growth inhibition relative to control
Hs-578T = assay: Antiproliferative activity against human Hs 578T cells at 10 uM assessed as cell growth inhibition relative to control
MCF7 = assay: Antiproliferative activity against human MCF7 cells at 10 uM assessed as cell growth inhibition relative to control
MDA-MB-231 = assay: Antiproliferative activity against human MDA-MB-231 cells at 10 uM assessed as cell growth inhibition relative to control
MDA-MB-468 = assay: Antiproliferative activity against human MDA-MB-468 cells at 10 uM assessed as cell growth inhibition relative to control
T47D = assay: Antiproliferative activity against human T47D cells at 10 uM assessed as cell growth inhibition relative to control
DU-145 = assay: Antiproliferative activity against human DU145 cells at 10 uM assessed as cell growth inhibition relative to control

Measured: growth inhibition (GI)

CNC(=O)NC[C@H]1O[C@@H](n2cnc3c(NC(=O)Nc4ccccc4)ncnc32)[C@@H]2OC(=O)C[C@@H]21
inactive: all assays above

CNC(=O)NC[C@H]1O[C@@H](n2cnc3c(NC(=O)Nc4ccccc4)ncnc32)[C@@H]2OC(C)(C)O[C@@H]21
inactive: all assays above

From ChEMBL document CHEMBL1154382, “Preliminary SAR analysis of novel antiproliferative N(6),5'-bis-ureidoadenosine derivatives” (2009)
